The values that follow are results of earlier work, collected in patent US20070059371A1, “Nanoparticulate ebastine formulations” (Elan Pharma International, Limited, priority 2005, published 2007).

For data set [1] the following is noted: mainly as conjugated metabolites.

In the case of `CC(C)(C)c1ccc(C(=O)CCCN2CCC(OC(c3ccccc3)c3ccccc3)CC2)cc1` [Ebastine, 4′-tert-butyl-4-[4-(diphenylmethoxy)piperidino]butyrophenone], the solubility in water entry was “not very soluble in water”. Moreover, the “excreted in the urine” value in data set [1] is given as 66%.
